Data as given in paper PMC10755736, “Modulating Liquid–Liquid Phase Separation of Nck Adaptor Protein against Enteropathogenic Escherichia coli Infection” (ACS Central Science, 2023).
Non-standard residues stand in square brackets, D forms with d. Residues, ends and D or L forms follow the SMILES beside them. *: point of attachment. Biotin = O=C1N[C@H]2[C@H](CS[C@H]2CCCCC(=O)*)N1; Benzoyl(3-SO2F) = O=C(c1cccc(S(=O)(=O)F)c1)*; pY = N[C@@H](Cc1ccc(OP(=O)(O)O)cc1)C(=O)O; Dap = NC[C@H](N)C(=O)O

Assays:
[1] = test system: EPEC infection of Caco-2 cells; assay: EPEC infection assay of Caco-2 cells (CFU counts); assay type: cell-based, enteropathogenic Escherichia coli; details: with L17E-mediated delivery, L17E 40 μM
Procedure: Lastly, to examine whether pretreatment of Caco-2 cells with L17E/p1 could prevent EPEC infection, we first established a bacterial infection assay (Figure 7a). Caco-2 cells were pretreated with L17E/p1 for 2 h. After excess peptides were removed, Caco-2 cells were then infected with EPEC at different multiplicity of infection (MOI) values (MOI is commonly defined as the ratio of infectious bacteria to cells in a culture) for 3 h, and extra bacterial cells were removed from the culture. Next, gentamicin was added to the cell culture to remove EPEC that are merely attached to the surface of Caco-2 cells, leaving only engulfed EPEC inside Caco2 cells to be counted (gentamicin treatment will not kill intracellular bacteria due to its cellular impermeability). After gentamicin was washed away, cells were lysed to release EPEC cells inside, and the cell lysates were diluted to count the number of EPEC cells as colony-forming units (cfu) on agar plates.
Caco-2 cells were seeded in a 24-well plate at a density of 1×10^4 cells for 24 h and pretreated with peptide complexes for 2 h. After washing with DMEM, cells were infected with EPEC at selected MOI values for 3 h at 37 ℃. Cells were then treated with gentamicin ([…]) for 2 h and lysed with 1% […]
Triton X-100 for 15 min. […]
The sample was loaded onto 12% SDS/PAGE glycerol gel and then transferred onto a PVDF membrane using Bio-Rad […]. The membrane was blocked and incubated with a rabbit anti-Nck antibody (Abcam, Hong Kong) at 4 °C overnight, followed by a n anti -rabbit HRP -labeled secondary antibody (Abcam, Hong Kong).
SPSS 23.0 statistical software was used to process experimental data. The differences between mean ± SEM of three independent experiments were assessed by Student's t -test.

Nck = molecular target: T1, Nck (Homo sapiens, UniProt P16333); assay: Crosslinking of peptides with recombinant Nck in vitro (SDS-PAGE, Western blotting); assay type: binding; details: peptide:Nck 5:1, 37 °C, PBS, 1 h; SDS-PAGE and anti-biotin Western blotting
T1 construct: GST (followed by PreScission/HRV 3C site) (N, cleaved yes); made in house; host or cells: E. coli BL21(DE3)
Description: Although peptide Y474 can block Nck-mediated LLPS, the requirement of a high concentration of the blocker peptide is hard to achieve inside the cell. […] The side chains of the Nck lysine residues are pointing toward the residues at pY+1 and pY+2 positions with distances of only 4 to 6 Å. This unique feature gives us an opportunity to design covalent blockers for Nck-SH2 by installing electrophiles at the pY+1 or pY+2 positions to enable a proximal conjugation reaction with one of the lysine residues. Covalent blockage through the characteristic lysine residues will maximize the specificity of the inhibitor toward Nck-SH2. As sulfonyl fluoride has been reported to react with proteinaceous nucleophiles such as lysine, histidine, or cysteine,[34] we installed a sulfonyl fluoride group on the side chain of diaminopropionic acid, giving an unnatural amino acid X1 at different positions such as pY+1 (Asp6) and pY+3 (Val8) of peptide EEHIpYDEVAAD. Besides the amino acid X1, we also included α-chloroacetyl-carrying amino acids X2 and X3, which may also react with proteineous nucleophiles. Electrophile-containing reactive peptides p1 to p11 were synthesized with a biotin tag at the N-termini (Figure 4b). After the reactive peptides were incubated with recombinant Nck protein at a 5:1 ratio at 37 °C in PBS for 1 h, the formation of covalently linked Nck–peptide conjugates could be observed, shown as new protein bands with molecular weights higher than that of Nck based on denatured SDS-PAGE and Western blotting analysis against biotin (Figure 4c). […] At 37 °C in PBS buffer, the 1:1 reaction efficiency reached 50% in 2 min (Figure S4 in the Supporting Information).
Figure 4 Covalently reactive peptides designed based on a Tir peptide. (a) Crystal structure of Nck-SH2 in complex with a peptide EEHIpYDEVAAD from EPEC protein Tir (PDB: 2CI9). (b) List of synthetic reactive peptides. (c) Unnatural amino acids in the peptides. (d) SDS-PAGE (top) and Western blotting (bottom) analyses showing covalent conjugation of the peptides with Nck. […]

Nck-SH2 = details: cited from earlier work
Description: Phosphorylated Tir is known to bind to Nck-SH2. […] Also, the sequence of nephrin contains three Tyr-containing sequences that are similar to those of the Tir peptide: HLYDEV, PLYDEV, and GIYDQV (the potential phosphorylation sites are underscored), with a hydrophobic residue at the pY-1 site, and negatively charged residues at pY+1 and/or pY+2 (Figure 2c). Therefore, we reason that phosphorylation at these Tyr turns nephrin into p-nephrin, a ...

CC[C@H](C)[C@H](NC(=O)[C@H](Cc1c[nH]cn1)NC(=O)[C@H](CCC(=O)O)NC(=O)[C@H](CCC(=O)O)NC(=O)[C@@H]1CCCN1)C(=O)N[C@@H](Cc1ccc(OP(=O)(O)O)cc1)C(=O)N[C@@H](CC(=O)O)C(=O)N[C@@H](CCC(=O)O)C(=O)N[C@H](C(=O)N[C@@H](C)C(=O)N[C@@H](C)C(=O)N[C@@H](CC(=O)O)C(=O)N1CCC[C@H]1C(=O)NCC(N)=O)C(C)C [Y474]
blockage of EPEC invasion/infection of Caco-2 cells [1]: can block EPEC invasion to Caco-2 cells

CC[C@H](C)[C@H](NC(=O)[C@H](Cc1c[nH]cn1)NC(=O)[C@H](CCC(=O)O)NC(=O)[C@H](CCC(=O)O)NC(=O)CCCC[C@@H]1SC[C@@H]2NC(=O)N[C@@H]21)C(=O)N[C@@H](Cc1ccc(OP(=O)(O)O)cc1)C(=O)N[C@@H](CC(=O)O)C(=O)N[C@@H](CCC(=O)O)C(=O)N[C@H](C(=O)N[C@@H](C)C(=O)N[C@@H](C)C(=O)N[C@@H](CNC(=O)c1cccc(S(=O)(=O)F)c1)C(N)=O)C(C)C [p7] (Biotin-EEHI[pY]DEVAA[Dap](Benzoyl(3-SO2F))-NH2)
reactivity with Nck (Nck): noticeable reactivity

EEHIpYDEVAADP [12-residue pY-containing Tir peptide]
binding to Nck-SH2 (Nck-SH2): strong binder to Nck-SH2
